The values below come from patent publication US20190322676A1, “CERAMIDE GALACTOSYLTRANSFERASE INHIBITORS FOR THE TREATMENT OF DISEASE” (BioMarin Pharmaceutical Inc., priority 2016, published 2019).

Where a name gives a salt, the structure may show the parent alone.

In the test the target is T1, human CGT (ceramide galactosyltransferase), CHO/CGT lysate (Homo sapiens, UniProt Q16880).
T1 construct: Full-length human CGT cDNA was cloned into the BamH1/Xho1 site of pcDNA3.1 (+); expressed in transfected cells; host or cells: Chinese hamster ovary (CHO) cells; lysate prepared with M-PER
T1 sequence (Q16880 21-541): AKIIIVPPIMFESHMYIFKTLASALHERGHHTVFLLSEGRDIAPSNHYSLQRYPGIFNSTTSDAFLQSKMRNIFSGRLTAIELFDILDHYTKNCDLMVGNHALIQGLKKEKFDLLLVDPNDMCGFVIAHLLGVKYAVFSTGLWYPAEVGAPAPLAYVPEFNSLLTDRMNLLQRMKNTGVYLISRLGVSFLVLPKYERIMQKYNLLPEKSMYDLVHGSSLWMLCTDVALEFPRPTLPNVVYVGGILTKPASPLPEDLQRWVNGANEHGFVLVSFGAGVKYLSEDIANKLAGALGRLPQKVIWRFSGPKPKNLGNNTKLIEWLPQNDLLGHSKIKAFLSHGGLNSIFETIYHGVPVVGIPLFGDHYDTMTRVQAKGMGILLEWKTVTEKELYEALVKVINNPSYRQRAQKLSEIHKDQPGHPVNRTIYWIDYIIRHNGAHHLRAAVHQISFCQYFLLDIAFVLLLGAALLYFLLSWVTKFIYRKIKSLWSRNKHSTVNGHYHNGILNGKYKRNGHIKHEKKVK
Briefly: CGT enzyme assay, LC-MS/MS readout (Table 1 ranges without asterisk). In kind it is biochemical. As to conditions: LC-MS/MS method (range without asterisk). On the procedure: Full-length human CGT cDNA was cloned into the BamH1/Xho1 site of pcDNA3.1 (+) mammalian expression vector (V90-20, Invitrogen, Carlsbad, Calif.) and the plasmid was transfected into Chinese hamster ovary (CHO) cells. Lysate was prepared using M-PER (Mammalian Protein Extraction Reagent, ThermoFisher Scientific, Grand Island, N.Y.) in the presence of a protease inhibitor cocktail (P8340, Sigma, Saint Louis, Mo.). Each 100 mm dish (100% confluent, approximately 1×10^7 cells) was lysed with 250 μL of M-PER containing protease inhibitors. Protein concentration was determined using a Pierce BCA protein assay kit (ThermoFisher Scientific). Four micrograms of CHO/CGT lysate was incubated with various concentrations of a compound (0.001 μM-50 μM) in 10 mM HEPES (pH 7.2) containing 35 μM dioleoylphosphatidylcholine, 5 mM MgCl2, 5 mM MnCl2, 1% BSA, 15 mM KCl, 1 mM EGTA, 8 mM CHAPS, 10 μM C6-NBD-dihydro-ceramide and 17.5 μM UDP-galactose in a final reaction volume of 20 μL at 37° C. for 1 hour. The final concentration of DMSO was 0.5% in both compound-treated and mock-treated samples. Tween 80 (0.01%) was optionally added to the reaction mixture to help solubilize the compounds. Each individual reaction was diluted with 80 μL of methanol:acetronitrile (1:3) containing 5 μM N-docdecanoyl-NBD-galactosylceramide (internal standard) to stop the reaction. 200 μL H2O:acetonitile (1:1) was added to precipitate the protein. After sufficient mixing, the plates were centrifuged at 2469 g for 38 minutes, 200 μL of supernatant was transferred to a LC/MS 96-deep well plate and a second spin was performed at 2469 g for 10 minutes. The final supernatant was injected in triplicate for RapidFire/MS/MS analysis.
An alternative LC-MS/MS based method was also used. For the LC-MS/MS readout, the CGT assay was identical to the one described above except for the following: […] was used as the CGT enzyme source, C12:0 (2R—OH) ceramide was used as the ceramide substrate and 0.3 μM Cl2 ceramide was used as the internal standard. Tween 80 was not present in the reaction mixture. The final supernatant was injected for LC-MS/MS analysis.
Quantitative analysis using the LC-MS/MS method: The quantitative analysis of C12:0 (2R—OH) ceramide and C12:0 (2R—OH) galactosylceramide by LC-MS/MS was performed on a Shimadzu ultra-fast liquid chromatography (Shimadzu, Japan) coupled with API 4000 mass spectrometer (Applied Biosystems, Concord, Ontario, Canada). Analyst 1.5 software packages (Applied Biosystems) were used to control the LC-MS/MS system, as well as for data acquisition and processing. 10 μL of sample was loaded onto a Luna C18 column (50 mm×2.0 mm, I.D. 3 μm, 100A) (Phenomenex, USA) for chromatographic separation. Mobile phase A consisted of HPLC grade water with 0.1% formic acid (v/v) and mobile phase B consisted of acetonitrile supplemented with 0.1% formic acid (v/v). The separation was achieved using the following gradient program at a flow rate of 0.8 mL/min: the initial mobile phase was 70% B, which was increased in a linear fashion to 95% B in 1.50 min, and then maintained at 95% B until 3.50 min. The mobile phase was then reset to 70% B within 0.01 min, and maintained until 4.50 min. The total run time was 4.50 min. The MS/MS detection was performed in ESI positive mode. The mass transition selected for quantification was m/z 498.5-264.3 for C12:0 (2R—OH) ceramide under the collision energy of 38.8 V, and the mass transition of C12:0 (2R—OH) galactosylceramide was m/z 660.6-264.5 under the collision energy of 51 V. The mass transition of Cl2 ceramide which was used as internal standard was m/z 482.4-264.3 under the collision energy of 33V. Compound IC50 values were calculated using a protocol identical to the one described for the RapidFire method (see Table 1, where data ranges without an asterix correspond to analysis using the LC-MS/MS method).
Using the above CGT enzyme and CGT cellular assays, the compounds of Table 1 were tested. […]
A word on the IC50: it is the concentration needed to halve the response being measured. A lower IC50 goes with greater potency. As for `NC1CC2CCC(C1)N2C(=O)[C@@H](NS(=O)(=O)c1ccc(OCc2ccccc2)cc1)C(F)(F)c1ccc(Br)cc1` (stereo partly drawn) [Compound 11-1, N-((2R)-3-(3-amino-8-azabicyclo[3.2.1]octan-8-yl)-1-(4-bromophenyl)-1,1-difluoro-3-oxopropan-2-yl)-4-(benzyloxy)benzenesulfonamide trifluoroacetate], the IC50 was 10 to 30 µM. To `NC1CC2CCC(C1)N2C(=O)[C@H](NS(=O)(=O)c1ccc(OCc2ccccc2)cc1)C(F)(F)c1ccc(Br)cc1` (stereo partly drawn) [Compound 11-2, N-((2S)-3-(3-amino-8-azabicyclo[3.2.1]octan-8-yl)-1-(4-bromophenyl)-1,1-difluoro-3-oxopropan-2-yl)-4-(benzyloxy)benzenesulfonamide trifluoroacetate] belongs 30 to 100 µM; to `NC1CC2CCC(C1)N2C(=O)[C@@H](NS(=O)(=O)c1ccc(OCC2CCCCC2)cc1)C(F)(F)c1ccc(Br)cc1` (stereo partly drawn) [Compound 12-1, N-((2R)-3-(3-amino-8-azabicyclo[3.2.1]octan-8-yl)-1-(4-bromophenyl)-1,1-difluoro-3-oxopropan-2-yl)-4-(cyclohexylmethoxy)benzenesulfonamide trifluoroacetate], 10 to 30 µM; to `CC[C@@H](C)Oc1ccc2cc(S(=O)(=O)N[C@H](C(=O)N3C4CCC3CC(N)C4)C(F)(F)c3ccc(Br)cc3)ccc2c1` (stereo partly drawn) [Compound 13-1, N-((2R)-3-(3-amino-8-azabicyclo[3.2.1]octan-8-yl)-1-(4-bromophenyl)-1,1-difluoro-3-oxopropan-2-yl)-6-((R)-sec-butoxy)naphthalene-2-sulfonamide], 1 to 10 µM. For `CC[C@H](C)Oc1ccc2cc(S(=O)(=O)N[C@@H](C(=O)N3C4CCC3CC(N)C4)C(F)(F)c3ccc(Br)cc3)ccc2c1` (stereo partly drawn) [Compound 13-2, N-((2S)-3-(3-amino-8-azabicyclo[3.2.1]octan-8-yl)-1-(4-bromophenyl)-1,1-difluoro-3-oxopropan-2-yl)-6-((S)-sec-butoxy)naphthalene-2-sulfonamide], the IC50 lay in the range of 10 to 30 µM. To `CC[C@H](C)Oc1ccc2cc(S(=O)(=O)N[C@H](C(=O)N3C4CCC3CC(N)C4)C(F)(F)c3ccc(Br)cc3)ccc2c1` (stereo partly drawn) [Compound 13-3, N-((2R)-3-(3-amino-8-azabicyclo[3.2.1]octan-8-yl)-1-(4-bromophenyl)-1,1-difluoro-3-oxopropan-2-yl)-6-((S)-sec-butoxy)naphthalene-2-sulfonamide] belongs 1 to 10 µM.

`CC[C@@H](C)Oc1ccc2cc(S(=O)(=O)N[C@@H](C(=O)N3C4CCC3CC(N)C4)C(F)(F)c3ccc(Br)cc3)ccc2c1` (stereo partly drawn) [Compound 13-4, N-((2S)-3-(3-amino-8-azabicyclo[3.2.1]octan-8-yl)-1-(4-bromophenyl)-1,1-difluoro-3-oxopropan-2-yl)-6-((R)-sec-butoxy)naphthalene-2-sulfonamide] displayed a 50% inhibitory concentration (IC50) of 10 to 30 µM. The compound `NC1CC2CCC(C1)N2C(=O)C(NC(=O)C(=O)c1ccc(-c2ccc(F)cc2)cn1)C(F)(F)c1ccc(Br)cc1` (stereo not drawn) [Compound 14, N-(3-(3-amino-8-azabicyclo[3.2.1]octan-8-yl)-1-(4-bromophenyl)-1,1l-difluoro-3-oxopropan-2-yl)-2-(5-(4-fluorophenyl)pyridin-2-yl)-2-oxoacetamide trifluoroacetate] yielded a concentration for half-maximal inhibition (IC50) of 30 to 100 µM. To `NC1CC2CCC(C1)N2C(=O)[C@@H](NS(=O)(=O)c1ccc(OCc2ccc(Cl)cc2)cc1)C(F)(F)c1ccc(Br)cc1` (stereo partly drawn) [Compound 15-1, N-((2R)-3-(3-amino-8-azabicyclo[3.2.1]octan-8-yl)-1-(4-bromophenyl)-1,1-difluoro-3-oxopropan-2-yl)-4-((4-chlorobenzyl)oxy)benzenesulfonamide trifluoroacetate] belongs 1 to 10 µM; to `NC1CC2CCC(C1)N2C(=O)[C@H](NS(=O)(=O)c1ccc(OCc2ccc(Cl)cc2)cc1)C(F)(F)c1ccc(Br)cc1` (stereo partly drawn) [Compound 15-2, N-((2S)-3-(3-amino-8-azabicyclo[3.2.1]octan-8-yl)-1-(4-bromophenyl)-1,1-difluoro-3-oxopropan-2-yl)-4-((4-chlorobenzyl)oxy) benzenesulfonamide trifluoroacetate], 30 to 100 µM; to `CC(C)c1ccc2cc(S(=O)(=O)N[C@H](C(=O)N3C4CCC3CC(N)C4)C(F)(F)c3ccc(Br)cc3)ccc2c1` (stereo partly drawn) [Compound 16-1, N-((2R)-3-(3-amino-8-azabicyclo[3.2.1]octan-8-yl)-1-(4-bromophenyl)-1,1-difluoro-3-oxopropan-2-yl)-6-isopropylnaphthalene-2-sulfonamide trifluoroacetate], 1 to 10 µM.

Take `CC(C)c1ccc2cc(S(=O)(=O)N[C@@H](C(=O)N3C4CCC3CC(N)C4)C(F)(F)c3ccc(Br)cc3)ccc2c1` (stereo partly drawn) [Compound 16-2, N-((2S)-3-(3-amino-8-azabicyclo[3.2.1]octan-8-yl)-1-(4-bromophenyl)-1,1-difluoro-3-oxopropan-2-yl)-6-isopropylnaphthalene-2-sulfonamide trifluoroacetate]: the IC50 lay within 30 to 100 µM. To `NC1CC2CCC(C1)N2C(=O)[C@@H](NS(=O)(=O)c1cccc(OCc2ccc(F)cc2)c1)C(F)(F)c1ccc(Br)cc1` (stereo partly drawn) [Compound 17-1, N-((2R)-3-(3-amino-8-azabicyclo[3.2.1]octan-8-yl)-1-(4-bromophenyl)-1,1-difluoro-3-oxopropan-2-yl)-3-((4-fluorobenzyl)oxy)benzenesulfonamide trifluoroacetate] belongs 30 to 100 µM; to `NC1CC2CCC(C1)N2C(=O)[C@H](NS(=O)(=O)c1cccc(OCc2ccc(F)cc2)c1)C(F)(F)c1ccc(Br)cc1` (stereo partly drawn) [Compound 17-2, N-((2S)-3-(3-amino-8-azabicyclo[3.2.1]octan-8-yl)-1-(4-bromophenyl)-1,1-difluoro-3-oxopropan-2-yl)-3-((4-fluorobenzyl)oxy) benzenesulfonamide trifluoroacetate], 30 to 100 µM; to `NC1CC2CCC(C1)N2C(=O)[C@@H](NS(=O)(=O)c1ccc(Oc2ccc(Cl)cn2)cc1)C(F)(F)c1ccc(Br)cc1` (stereo partly drawn) [Compound 18-1, N-((2R)-3-(3-amino-8-azabicyclo[3.2.1]octan-8-yl)-1-(4-bromophenyl)-1,1-difluoro-3-oxopropan-2-yl)-4-((5-chloropyridin-2-yl)oxy)benzenesulfonamide trifluoroacetate], 10 to 30 µM.
